According to ChEMBL document CHEMBL3046404, “The cytotoxic effects of diketopiperaizes against Leishmania donovani promastigotes and amastigotes” (Med Chem Res, 2013):
Converted amounts (≈) assume the structure as drawn. Each block holds one compound with its values, some of them ahead of it.

Key:
[1] = system: Leishmania donovani; assay: Antileishmanial activity against promastigote form of Leishmania donovani MHOH/IN/1983/AG83 after 2 hr by MTT assay; assay type: functional, organism-based
[2] = Toxicity against BALB/c Mus musculus (mouse) peritoneal macrophages assessed as concentration required for cell lysis after 48 hr; assay type: cell-based, Peritoneal macrophage cell; settings: read-out: Activity
[3] = system: Leishmania donovani; assay: microbe, parasite or virus in culture; settings: MHOH/IN/1983/AG83, 48 h
Description: Antileishmanial activity against amastigote form of Leishmania donovani MHOH/IN/1983/AG83 infected BALB/c mouse peritoneal macrophages after 48 hr by Geimsa staining method

[4] = system: Leishmania donovani; assay: Antileishmanial activity against promastigote form of Leishmania donovani MHOH/IN/1983/AG83 infected BALB/c mouse assessed as reduction in parasite burden in liver at 250 mg/kg, ip administered 1 month post-infection 2 times per week for 30 days relative to control; assay type: functional, organism-based; set-up: dose 250 mg/kg; scale not given: the % may be the effect or the level left
[5] = system: Leishmania donovani; assay: Antileishmanial activity against promastigote form of Leishmania donovani MHOH/IN/1983/AG83 infected BALB/c mouse assessed as reduction in parasite burden in spleen at 250 mg/kg, ip administered 1 month post-infection 2 times per week for 30 days relative to control; assay type: functional, organism-based; set-up: dose 250 mg/kg; scale not given: the % may be the effect or the level left
[6] = system: Leishmania donovani; assay: Antileishmanial activity against promastigote form of Leishmania donovani MHOH/IN/1983/AG83 infected BALB/c mouse assessed as liver weight at 250 mg/kg, ip administered 1 month post-infection 2 times per week for 30 days (reference value: 1,746 +/- 56 mg); assay type: functional, organism-based; set-up: dose 250 mg/kg
[7] = system: Leishmania donovani; assay: Antileishmanial activity against promastigote form of Leishmania donovani MHOH/IN/1983/AG83 infected BALB/c mouse assessed as spleen weight at 250 mg/kg, ip administered 1 month post-infection 2 times per week for 30 days (reference value: 509 +/- 25 mg); assay type: functional, organism-based; set-up: dose 250 mg/kg
[8] = system: Leishmania donovani; assay: Antileishmanial activity against promastigote form of Leishmania donovani MHOH/IN/1983/AG83 infected in BALB/c mouse assessed as reduction in parasite burden in liver at 10 mg/kg, ip administered 1 month post-infection 2 times per week for 30 days relative to control; assay type: functional; set-up: scale not given: the % may be the effect or the level left; settings: route intraperitoneal
[9] = system: Leishmania donovani; assay: Antileishmanial activity against promastigote form of Leishmania donovani MHOH/IN/1983/AG83 infected BALB/c mouse assessed as spleen weight at 10 mg/kg, ip administered 1 month post-infection 2 times per week for 30 days (reference value: 509 +/- 25 mg); assay type: functional; settings: route intraperitoneal
[10] = system: Leishmania donovani; assay: Antileishmanial activity against amastigote form of Leishmania donovani MHOH/IN/1983/AG83 infected BALB/c mouse peritoneal macrophages at 10 ug/ml after 48 hr by Geimsa staining method relative to control; assay type: functional
[11] = system: Leishmania donovani; assay: Antileishmanial activity against promastigote form of Leishmania donovani MHOH/IN/1983/AG83 infected in BALB/c mouse assessed as reduction in parasite burden in spleen at 10 mg/kg, i.p. administered 1 month post-infection 2 times per week for 30 days relative to control; assay type: functional; set-up: scale not given: the % may be the effect or the level left; settings: route intraperitoneal
[12] = system: Mus musculus; assay: Toxicity against BALB/c Mus musculus (mouse) assessed as blood urea level at 10 mg/kg, ip administered 2 times per week for 30 days (reference value: 29 +/- 6 mg/dl); assay type: organism-based; set-up: dose 10 mg/kg, route intraperitoneal; settings: in vivo, 720 h
[13] = system: Mus musculus; assay: Toxicity against BALB/c Mus musculus (mouse) assessed as SGOT level at 10 mg/kg, ip administered 2 times per week for 30 days (reference value: 71 +/- 4 IU/l); assay type: organism-based; set-up: dose 10 mg/kg, route intraperitoneal; settings: in vivo, 720 h
[14] = system: Mus musculus; assay: Toxicity against BALB/c Mus musculus (mouse) assessed as SGPT level at 10 mg/kg, ip administered 2 times per week for 30 days (reference value: 28 +/- 5 IU/l); assay type: organism-based; set-up: dose 10 mg/kg, route intraperitoneal; settings: in vivo, 720 h
[15] = system: Leishmania donovani; assay: Antileishmanial activity against promastigote form of Leishmania donovani MHOH/IN/1983/AG83 infected BALB/c mouse assessed as liver weight at 10 mg/kg, ip administered 1 month post-infection 2 times per week for 30 days (reference value: 1,746 +/- 56 mg); assay type: functional; settings: route intraperitoneal
[16] = Leishmania donovani, MHOH/IN/1983/AG83, 2 h, read-out: IC50

Compound: COc1ccc(Cl)cc1N1CC(=O)N(c2cc(Cl)ccc2OC)CC1=O
IC50 [1]: Not Active
MCC at 48 h [2]: > 100 µg/mL

Compound: SODIUM ANTIMONY GLUCONATE
Activity [4]: 57.7%
Activity [5]: 60.2%
Activity [6]: 1320 mg
Activity [7]: 303 mg

Compound: O=C1CN(C2CCCCC2)C(=O)CN1C1CCCCC1
Activity [8]: 81.74%
Activity [9]: 139 mg
Activity [10]: 84.66%
IC50 [1, 16]: 0.7 µg/mL (≈ 2.51 µM)
Activity [11]: 80.95%
MCC at 48 h [2]: > 50 µg/mL
Activity [12]: 31 mg/dL
Activity [13]: 73 IU/L
Activity [14]: 30 IU/L
Activity [15]: 1076 mg
IC50 [3]: 1.1 µg/mL (≈ 3.95 µM)

More lines, main results first:

IC50 [3]: > 10 µg/mL
Compound: O=C1CN(c2c(Cl)cc(Cl)cc2Cl)C(=O)CN1c1c(Cl)cc(Cl)cc1Cl
IC50 [1, 16]: 9.4 µg/mL (≈ 19.9 µM)
MCC at 48 h [2]: > 70 µg/mL

IC50 [3]: 6.4 µg/mL (≈ 15.8 µM)
Compound: O=C1CN(c2ccc(Cl)cc2Cl)C(=O)CN1c1ccc(Cl)cc1Cl
IC50 [1, 16]: 2.9 µg/mL (≈ 7.18 µM)
MCC at 48 h [2]: > 35 µg/mL

IC50 [3]: 2.8 µg/mL (≈ 8.22 µM)
Compound: N=C(N)c1ccc(OCCCCCOc2ccc(C(=N)N)cc2)cc1 [PENTAMIDINE]
IC50 [1, 16]: 2.1 µg/mL (≈ 6.17 µM)
MCC at 48 h [2]: > 90 µg/mL

IC50 [3]: 0.61 µg/mL (≈ 1.82 µM)
Compound: O=C1CN(c2ccccc2Cl)C(=O)CN1c1ccccc1Cl
Activity [8]: 80.37%
Activity [9]: 106 mg
Activity [10]: 92%
IC50 [1, 16]: 1.02 µg/mL (≈ 3.04 µM)
Activity [11]: 71.81%
MCC at 48 h [2]: > 25 µg/mL
Activity [12]: 30 mg/dL
Activity [13]: 72 IU/L
Activity [14]: 28 IU/L
Activity [15]: 976 mg

IC50 [3]: 2.2 µg/mL (≈ 6.74 µM)
Compound: COc1ccc(N2CC(=O)N(c3ccc(OC)cc3)CC2=O)cc1
IC50 [1, 16]: 21.8 µg/mL (≈ 66.8 µM)
MCC at 48 h [2]: > 60 µg/mL
